From patent US11759461B2, “Small molecule inhibitors of cancer stem cells and mesenchymal cancer types” (The Scripps Research Institute, priority 2017, dated 2023)

Each compound was assayed on FOXC2-expressing HMLER cells (assay: Cell Titer Glo viability of FOXC2-HMLER cells (high throughput screen and 10-point response)). Settings: Homo sapiens; scored relative to parent compound 1; 72 hours; read-out: Activity Score, inhibition of FOXC2-expressing HMLER cells by Formula I compounds.
Assay type: cell-based
Procedure, shortened: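 FOXC2-HMLER cells (HMLER run in parallel) seeded at 1,000 cells/well in MEGM, attached 1 h, then given compound in DMSO (2 μM in the screen). After 72 h, viability was read by Cell Titer Glo luminescence.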

SMILES | IC50 [µM]
FC(F)(F)Oc1cccc(N2CCN(c3cnnc4c(Cl)cccc34)CC2)c1 [Compound 1SRAC] | 1 to 20
Clc1ccc(N2CCN(c3cnnc4c(Cl)cccc34)CC2)cc1Cl [Compound 1SRAA] | 1 to 20

Same assay, conditions: Homo sapiens; scored relative to parent compound 2; 72 hours; read-out: Activity Score, inhibition of FOXC2-expressing HMLER cells by Formula II compounds

SMILES | IC50 [µM]
COc1cc(NC(=O)Cn2c(=O)c(CNc3ccccc3)cc3ccc(C)cc32)cc(OC)c1 [Compound 2IF] | > 20
COc1ccccc1NC(=O)Cn1c(=O)c(CNc2ccccc2)cc2cc(OC)c(OC)cc21 [Compound 2ES] | > 20
O=C(Cn1c(=O)c(CNc2ccccc2)cc2cc3c(cc21)OCCO3)Nc1ccc2c(c1)OCCO2 [Compound 2FG] | > 20
CCc1ccc(NC(=O)Cn2c(=O)c(CNc3ccccc3)cc3ccc(OC)cc32)cc1 [Compound 2BN] | > 20
CCc1ccc(NCc2cc3ccc(OC)cc3n(CC(=O)Nc3ccc(C(C)C)cc3)c2=O)cc1 [Compound 2EK] | > 20
CCc1ccc(NC(=O)Cn2c(=O)c(CNc3ccccc3)cc3cc(OC)c(OC)cc32)cc1 [Compound 2CL] | > 20
CCc1ccc(NCc2cc3ccc(OC)cc3n(CC(=O)Nc3ccc(CC)cc3)c2=O)cc1 [Compound 2CW] | > 20
CCOC(=O)c1cccc(NC(=O)Cn2c(=O)c(CNc3ccccc3)cc3ccc(OC)cc32)c1 [Compound 2BG] | > 20
CCc1ccc(NCc2cc3cc(OC)c(OC)cc3n(CC(=O)Nc3ccc(C)cc3)c2=O)cc1 [Compound 2HR] | > 20
Cc1ccc(NC(=O)Cn2c(=O)c(CNc3ccccc3)cc3cc4c(cc32)OCCO4)cc1 [Compound 2GJ] | > 20
CCc1ccc(NCc2cc3ccc(OC)cc3n(CC(=O)Nc3ccccc3Cl)c2=O)cc1 [Compound 2HC] | > 20
COc1ccc(NCc2cc3cc4c(cc3n(CC(=O)Nc3cc(C)ccc3C)c2=O)OCCO4)cc1 [Compound 2W] | 1 to 20
COc1ccc2cc(CNc3ccccc3)c(=O)n(CC(=O)Nc3ccccc3C)c2c1 [Compound 2HT] | > 20
CCc1ccc(NCc2cc3cc4c(cc3n(CC(=O)Nc3ccccc3)c2=O)OCCO4)cc1 [Compound 2DW] | > 20
COc1ccc(CNC(=O)Cn2c(=O)c(CNc3ccc(C)cc3)cc3ccc(OC)cc32)cc1 [Compound 2FZ] | > 20
CCOC(=O)c1ccccc1NC(=O)Cn1c(=O)c(CNc2ccc(C)cc2)cc2ccc(OC)cc21 [Compound 2D] | 1 to 20
CCOc1ccccc1NC(=O)Cn1c(=O)c(CNc2ccc(CC)cc2)cc2ccc(OC)cc21 [Compound 2B] | < 1
CCc1ccc(NCc2cc3cc4c(cc3n(CC(=O)Nc3cccc(OC)c3)c2=O)OCCO4)cc1 [Compound 2GA] | > 20
COc1ccc(NC(=O)Cn2c(=O)c(CNc3ccc(C)cc3)cc3cc(OC)c(OC)cc32)cc1 [Compound 2BQ] | > 20
Cc1ccc(NCc2cc3cc4c(cc3n(CC(=O)Nc3cccc(C)c3)c2=O)OCCO4)cc1 [Compound 2DG] | > 20
COc1cc2cc(CNc3ccc(C)cc3)c(=O)n(CC(=O)Nc3cc(C)cc(C)c3)c2cc1OC [Compound 2DJ] | > 20
COc1ccc2cc(CNc3ccccc3)c(=O)n(CC(=O)Nc3cc(C)cc(C)c3)c2c1 [Compound 2HN] | > 20
CCc1ccc(NC(=O)Cn2c(=O)c(CNc3ccccc3)cc3cc4c(cc32)OCCO4)cc1 [Compound 2AE] | 1 to 20
CCc1ccc(NCc2cc3ccc(OC)cc3n(CC(=O)Nc3cccc(OC)c3)c2=O)cc1 [Compound 2FT] | > 20

SMILES | IC50 [µM]
COc1cc2cc(CNc3ccccc3)c(=O)n(CC(=O)Nc3ccc(Cl)cc3)c2cc1OC [Compound 2FP] | > 20
COc1ccc2cc(CNc3ccc(C)cc3)c(=O)n(CC(=O)NCc3ccccc3)c2c1 [Compound 2GT] | > 20
COc1ccc2cc(CNc3ccc(C)cc3)c(=O)n(CC(=O)Nc3ccc(C)cc3)c2c1 [Compound 2AY] | > 20
COc1ccc2cc(CNc3ccccc3)c(=O)n(CC(=O)Nc3ccc(Cl)cc3)c2c1 [Compound 2CA] | > 20
COc1ccc(NCc2cc3cc4c(cc3n(CC(=O)Nc3ccc(C)c(C)c3)c2=O)OCCO4)cc1 [Compound 2GD] | > 20
COc1cc2cc(CNc3ccccc3)c(=O)n(CC(=O)Nc3ccc(C(C)C)cc3)c2cc1OC [Compound 2V] | 1 to 20
COc1ccc(CNC(=O)Cn2c(=O)c(CNc3ccccc3)cc3ccc(OC)cc32)cc1 [Compound 2BI] | > 20
COc1ccc(NCc2cc3cc4c(cc3n(CC(=O)NCc3ccccc3)c2=O)OCCO4)cc1 [Compound 2DY] | > 20
COc1ccc(NCc2cc3cc4c(cc3n(CC(=O)Nc3cc(C)cc(C)c3)c2=O)OCCO4)cc1 [Compound 2IG] | > 20
COc1ccc(NC(=O)Cn2c(=O)c(CNc3ccccc3)cc3cc(OC)c(OC)cc32)cc1 [Compound 2DO] | > 20
COc1ccc2cc(CNc3ccc(C)cc3)c(=O)n(CC(=O)Nc3cccc(C(C)=O)c3)c2c1 [Compound 2GF] | > 20
COc1cccc(NC(=O)Cn2c(=O)c(CNc3ccccc3)cc3ccc(OC)cc32)c1 [Compound 2DX] | > 20
CCc1ccc(NCc2cc3ccc(OC)cc3n(CC(=O)NCCc3ccccc3)c2=O)cc1 [Compound 2GL] | > 20
COc1cc2cc(CNc3ccc(C)cc3)c(=O)n(CC(=O)Nc3cc(C)ccc3C)c2cc1OC [Compound 2AB] | 1 to 20
CCc1ccc(NCc2cc3cc4c(cc3n(CC(=O)Nc3c(C)cccc3C)c2=O)OCCO4)cc1 [Compound 2A] | < 1
COc1ccc(NC(=O)Cn2c(=O)c(CNc3ccccc3)cc3ccc(OC)cc32)cc1 [Compound 2DH] | > 20
COc1ccc2cc(CNc3ccccc3)c(=O)n(CC(=O)Nc3ccc(C)cc3)c2c1 [Compound 2ET] | > 20
COc1ccc(NCc2cc3cc4c(cc3n(CC(=O)Nc3ccccc3)c2=O)OCCO4)cc1 [Compound 2AA] | 1 to 20
COc1ccc(NCc2cc3cc(OC)c(OC)cc3n(CC(=O)Nc3cccc(C)c3)c2=O)cc1 [Compound 2HI] | > 20
CCc1ccc(NCc2cc3ccc(OC)cc3n(CC(=O)Nc3ccc(C)cc3C)c2=O)cc1 [Compound 2J] | 1 to 20
CCc1ccc(NCc2cc3ccc(OC)cc3n(CC(=O)Nc3ccccc3F)c2=O)cc1 [Compound 2T] | 1 to 20
COc1ccc2cc(CNc3ccccc3)c(=O)n(CC(=O)Nc3cc(Cl)ccc3OC)c2c1 [Compound 2BS] | > 20
COc1ccc2cc(CNc3ccc(C)cc3)c(=O)n(CC(=O)Nc3cc(Cl)ccc3C)c2c1 [Compound 2FC] | > 20
CC(=O)c1cccc(NC(=O)Cn2c(=O)c(CNc3ccc(C)cc3)cc3cc4c(cc32)OCCO4)c1 [Compound 2BF] | > 20

Same assay, conditions: Homo sapiens; scored relative to parent compound 3; 72 hours; read-out: Activity Score, inhibition of FOXC2-expressing HMLER cells by Formula III compounds

SMILES | IC50 [µM]
Cc1ccc(C(=O)N2CCN(c3ccccc3)CC2)cc1-n1nnc2cccnc21 [Compound 3V] | 1 to 20
COc1ccc(N2CCN(C(=O)c3ccc(C)c(-n4nnc5cccnc54)c3)CC2)cc1 [Compound 3BI] | > 20
Cc1ccc(C(=O)NCc2ccccc2)cc1-n1nnc2cccnc21 [Compound 3BB] | > 20
Cc1ccc(CNC(=O)c2ccc(C)c(-n3nnc4cccnc43)c2)cc1 [Compound 3BD] | > 20
Cc1ccccc1CNC(=O)c1cccc(-n2nnc3cccnc32)c1C [Compound 3CI] | > 20
Cc1cc(C(=O)NC2CCN(Cc3ccccc3)CC2)ccc1-n1nnc2cccnc21 [Compound 3N] | 1 to 20
Cc1c(C(=O)NCCCN2CCN(Cc3ccccc3)CC2)cccc1-n1nnc2cccnc21 [Compound 3CD] | > 20
Cc1ccc(C)c(N2CCN(C(=O)c3cccc(-n4nnc5cccnc54)c3)CC2)c1 [Compound 3D] | < 1
Cc1ccc(C(=O)N2CCN(c3ccc(F)cc3)CC2)cc1-n1nnc2cccnc21 [Compound 3AA] | 1 to 20
O=C(NC1CCN(Cc2ccccc2)CC1)c1cccc(-n2nnc3cccnc32)c1 [Compound 3AY] | > 20
CCN(Cc1ccccc1)C(=O)c1ccc(C)c(-n2nnc3cccnc32)c1 [Compound 3BG] | > 20
Cc1ccc(C(=O)N2CCN(C3CCCCC3)CC2)cc1-n1nnc2cccnc21 [Compound 3BE] | > 20
Cc1ccc(CN2CCC(CNC(=O)c3ccc(C)c(-n4nnc5cccnc54)c3)CC2)cc1 [Compound 3AB] | 1 to 20
Cc1c(C(=O)NC(C)C(=O)N2CCCCC2)cccc1-n1nnc2cccnc21 (stereo not drawn) [Compound 3CK] | > 20
O=C(c1cccc(-n2nnc3cccnc32)c1)N1CCCC1 [Compound 3AV] | > 20
Cc1c(C(=O)NCCCN2CCN(c3ccc(F)cc3)CC2)cccc1-n1nnc2cccnc21 [Compound 3CC] | > 20
O=C(NCCCN1CCN(Cc2ccccc2)CC1)c1cccc(-n2nnc3cccnc32)c1 [Compound 3BA] | > 20
Cc1cccc(N2CCN(C(=O)c3cccc(-n4nnc5cccnc54)c3)CC2C)c1 (stereo not drawn) [Compound 3S] | 1 to 20

Same assay, conditions: Homo sapiens; scored relative to parent compound 4; 72 hours; read-out: Activity Score, inhibition of FOXC2-expressing HMLER cells by Formula IV compounds

SMILES | IC50 [µM]
Cc1ccc(-n2nc(N3CCN(S(=O)(=O)c4cnn(C(F)F)c4C)CC3)ccc2=O)cc1C [Compound 4AK] | > 20
Cc1nn(-c2ccccc2)c(C)c1S(=O)(=O)N1CCN(c2ccccn2)CC1 [Compound 4J] | 1 to 20
Cc1nn(-c2ccc(-c3ccccc3)nn2)c(C)c1S(=O)(=O)N1CCN(c2ccccc2)CC1 [Compound 4AO] | > 20
Cc1ccc(-n2nc(C)c(S(=O)(=O)N3CCN(c4ccc(Cl)cc4)CC3)c2C)cc1 [Compound 4AD] | > 20
Cc1cccc(-c2cc(N3CCN(S(=O)(=O)c4ccccc4C)CC3)ncn2)c1 [Compound 4I] | 1 to 20
Cc1nn(C)c(C)c1S(=O)(=O)N1CCN(c2cccc(Cl)c2)CC1 [Compound 4N] | > 20
Cc1ccc(N2CCN(S(=O)(=O)c3c(C)nn(-c4ccc(-c5ccccc5)nn4)c3C)CC2)cc1 [Compound 4AS] | > 20
